Results published in PMC5613016, “GRL-09510, a Unique P2-Crown-Tetrahydrofuranylurethane -Containing HIV-1 Protease Inhibitor, Maintains Its Favorable Antiviral Activity against Highly-Drug-Resistant HIV-1 Variants in vitro” (Scientific Reports, 2017).

Assays:
Format in all cases: cell-based
MT-2 cells = assay: Cytotoxicity against MT-2 cells (MTT assay)
Description: (§1) The susceptibility of HIV-1LAI or HIV-2ROD to various compounds was determined as previously described[20]–[22]. Briefly, MT-2 cells (10^4/ml) were exposed to 100 TCID50 of HIV-1LAI or HIV-2ROD in the presence or absence of various concentrations of compounds in 96-well plates and were incubated at 37 °C for 7 days. After incubation, 100 μl of the medium was removed from each well, 3-(4,5-dimetylthiazol-2-yl)-2,5-diphenyltetrazolium bromide (MTT) solution (10 μl, 7.5 mg/ml in PBS) was added to each well, followed by incubation at 37 °C for 2 h. […] To determine the sensitivity of clinically isolated HIV-1s to compounds, PHA-PBMC (10^6/ml) were exposed to 50 TCID50 of each HIV-1 and cultured in the presence or absence of various concentrations of compounds in 10-fold serial dilutions in 96-well plates. In determining the drug-susceptibility of certain laboratory HIV-1 strains, MT-4 cells were employed as target cells as previously described[23],[24]. MT-4 cells (10^5/ml) were exposed to 100 TCID50 of drug-resistant HIV-1s in the presence or absence of various concentrations of compounds and were incubated at 37 °C. On day 7, the supernatants were harvested and the amounts of p24 were determined by using a fully-automated chemiluminescent enzyme immunoassay system (Lumipulse f: Fujirebio, Tokyo)[35]–[37]. […] All assays were performed in duplicate, and EC50 shown in this report represent average values of two to four independent experiments. PHA-PBMCs were derived from a single donor in each independent experiment. The research protocols described in the present study were carried out in accordance with relevant guidelines and regulations, and were approved in Ethics Committee for Epidemiological and General Research at the Faculty of Life Sciences, Kumamoto University.

HIV-2ROD = assay: microbe, parasite or virus in culture
Description: as §1

HIV-1LAI = assay: microbe, parasite or virus in culture
Description: as §1

[1] = system: HIV-1ERS104pre (wild-type); assay: p24 production inhibition in PHA-PBMC; settings: PHA-PBMC, p24 Gag production
Description: as §1

HIV-1MDR/C = assay: p24 production inhibition in PHA-PBMC
Description: as §1

HIV-1MDR/B = assay: p24 production inhibition in PHA-PBMC
Description: as §1

HIV-1MDRmix DRV ^R 20P = assay: p24 production inhibition in PHA-PBMC
Description: as §1

HIV-1MDR/G = assay: p24 production inhibition in PHA-PBMC
Description: as §1

HIV-1MDR/TM = assay: p24 production inhibition in PHA-PBMC
Description: as §1

HIV-1LPV ^R 5μM = assay: p24 production inhibition in MT-4 cells
Description: as §1

HIV-1ATV ^R 5μM = assay: p24 production inhibition in MT-4 cells
Description: as §1

HIV-1NL4-3 [2] = assay: p24 production inhibition in MT-4 cells; settings: MT-4 cells, p24 Gag production, Table 3
Description: as §1

HIV-1APV ^R 5μM = assay: p24 production inhibition in MT-4 cells
Description: as §1

HIV-1NL4-3 [3] = assay: In vitro selection of resistant HIV-1 variants in MT-4 cells; settings: HIV-1NL4-3 in MT-4 cells, increasing concentrations
Description: MT-4 cells (10^5/ml) were exposed to HIV-1NL4-3 (500 TCID50) and cultured in the presence of compounds at an initial concentration of its EC50 value. Viral replication was monitored by the determination of the amount of p24 produced by MT-4 cells. The supernatants were harvested on day 7 and were used to infect fresh MT-4 cells for the next round of culture in the presence of increasing concentrations of each compound. Proviral DNAs obtained from the lysates of infected cells were subjected to sequencing. This selection procedure was carried out until the drug concentration reached 5 μM as previously described[20]–[22]).

[4] = compared to EC50 for HIV-1ERS104pre
[5] = number in parentheses, compared to HIV-1NL4-3

With `COc1ccc(S(=O)(=O)N(CC(C)C)CC(O)C(Cc2ccccc2)NC(=O)OC2C3COC4OCC2C4C3)cc1` (stereo not drawn) [GRL-09610] the CC50 (MT-2 cells) was 33100 ± 1000 nM, the EC50 (HIV-2ROD; MT-2 cells, 100 TCID50, MTT assay, read-out: EC50 Against HIV-2ROD) was 15 ± 9 nM and the “Selectivity Index (CC50/EC50) MT2/HIV-2ROD” value (HIV-2ROD; ratio of CC50 to EC50 against HIV-2ROD) was 2,207. The EC50 (HIV-1LAI; MT-2 cells, 100 TCID50, MTT assay, read-out: EC50 Against HIV-1LAI) was 2.3 ± 0.7 nM, the “Selectivity Index (CC50/EC50) MT2/HIV-1LAI” value (HIV-1LAI; ratio of CC50 to EC50 against HIV-1LAI) was 14,391 and the EC50 [1] was 3.2 ± 0.2 nM. For the same compound, the EC50 (HIV-1MDR/C; PHA-PBMC, p24 Gag production) was 4.9 ± 1.8 nM, the “fold change of EC50 HIV-1MDR/C” value (HIV-1MDR/C; [4]) was 2 and the EC50 (HIV-1MDR/B; PHA-PBMC, p24 Gag production) was 14.5 ± 1.3 nM. For the same compound, the “fold change of EC50 HIV-1MDR/B” value (HIV-1MDR/B; [4]) was 5, the “fold change of EC50 HIV-1MDRmix DRV ^R 20P” value (HIV-1MDRmix DRV ^R 20P; [4]) was 78 and the EC50 (HIV-1MDRmix DRV ^R 20P; read-out: EC50 HIV-1MDRmix DRV ^R 20P, PHA-PBMC, p24 Gag production) was 250 ± 30 nM. For the same compound, the EC50 (HIV-1MDR/G; PHA-PBMC, p24 Gag production) was 15.8 ± 13.3 nM, the “fold change of EC50 HIV-1MDR/G” value (HIV-1MDR/G; [4]) was 5 and the EC50 (HIV-1MDR/TM; PHA-PBMC, p24 Gag production) was 28.9 ± 1.6 nM. For the same compound, the “fold change of EC50 HIV-1MDR/TM” value (HIV-1MDR/TM; [4]) was 9, the “fold change of EC50 HIV-1LPV ^R 5μM” value (HIV-1LPV ^R 5μM; [5]) was 10 and the EC50 (HIV-1LPV ^R 5μM; read-out: EC50 HIV-1LPV ^R 5μM, MT-4 cells, p24 Gag production) was 32 ± 1 nM. The “fold change of EC50 HIV-1ATV ^R 5μM” value (HIV-1ATV ^R 5μM; [5]) was 11, the EC50 (HIV-1ATV ^R 5μM; read-out: EC50 HIV-1ATV ^R 5μM, MT-4 cells, p24 Gag production) was 35.4 ± 0.8 nM and the EC50 (HIV-1NL4-3 [2]) was 3.2 ± 0.2 nM. The “fold change of EC50 HIV-1APV ^R 5μM” value (HIV-1APV ^R 5μM; [5]) was 97, the EC50 (HIV-1APV ^R 5μM; read-out: EC50 HIV-1APV ^R 5μM, MT-4 cells, p24 Gag production) was 310 ± 90 nM and the “passage at which selection concentration reached 5 µM” value (HIV-1NL4-3 [3]) was roughly 43.
